# Data as given in patent US20210060060A1, “COMPOSITIONS AND METHODS FOR THE TREATMENT OF LUNG EMPHYSEMA AND OTHER FORMS OF COPD” (Emphysema Solutions BV, priority 2018, published 2021).
# Read-outs that look alike come from different tables or passages of the source.
# Experiments:
# [1] = test system: porcine pancreatic elastase (PPE)-induced emphysema; test: Porcine pancreatic elastase (PPE)-induced emphysema model in mice
# Procedure: Methods: In order to assess the effects of copper sulfate plus heparin on both elastin and collagen metabolism in vivo, we used a porcine pancreatic elastase (PPE)-induced emphysema model. Study was conducted in male BALB/c mice aged 7 weeks with a starting body weight of about 25 g. During the study period, all mice were housed in a conventional animal house with a 12/12 h light-dark cycle in filter-top cages and supplied with pelleted food and water ad libitum. 1.5 U porcine pancreatic elastase in 25 μL saline was intratracheally administered on day 1 under light anesthesia. […] On day 35, mice were anesthetized intraperitoneally with a mixture of xylazine (8.5 mg/kg) and ketamine (130 mg/kg), they were tracheotomized and placed in a whole-body plethysmograph to assess lung function. After lung function measurements, mice were euthanized by an intracardiac administration of pentobarbital. The left lung will be snap-frozen in liquid nitrogen and stored at −80° C. for subsequent gene expression studies where ELN, LOX and LOXL1 were measured. The right lung was fixed in 6% paraformaldehyde at a constant hydrostatic pressure of 25 cm fluid column for 24 h. After dehydration and embedding in paraffin, sagittal sections will be stained with various stains and used for histological analyses to measure airspace enlargement (mean linear intercept); and subsequently this lung was used for measuring concentrations of both DES and insoluble collagen. Brains were taken out to measure copper concentrations.
# [2] = test system: pulmonary rat fibroblasts
# Description: (§1) Cell cultures with pulmonary rat fibroblasts. • 7.
# (§2) We first measured copper levels in the fibroblast medium.
# copper-deficient chicks = details: copper repletion in copper-deficient chicks, ref. [7]; cited from earlier work
# rats' lungs = details: copper repletion after copper-deficient diet, ref. [15]; cited from earlier work
# [3] = test system: pulmonary rat fibroblasts; test: Fibroblast cell cultures: vitamin K or magnesium sulfate on top of copper sulfate (6c); type: cell-based; details: added to copper sulfate (+8*initial copper concentration in medium); for accumulation of collagen: compared to copper sulfate monotherapy
# Description: as §1, §2
# [4] = intratracheal on day 1, 8, 15, 22 and 29, day 35, compared to placebo
# [5] = fibroblasts grown 21 days, copper sulfate added +0.5 to +32*initial copper concentration in medium
Compound,DES accumulation [3],ELN gene expression [3],LOX gene expression [3],LOXL1 gene expression [3],tropo-elastin levels [3],accumulation of collagen [3],insoluble elastin levels [3],also measured
O=S(=O)([O-])[O-].[Cu+2] [copper sulfate],–,–,–,–,–,–,–,"accumulation of collagen in the lungs ([1]; conclusion of the mouse study): induced accumulation and maturation of collagen fibers; elastin repair process / repair of damaged elastin fibers ([1]; conclusion of the mouse study): very effectively stimulated; DES levels in lung tissue [1, 4]: higher; Mean linear intercept [1, 4]: lower; hydroxyproline levels in lung [1, 4]: elevated; hyperinflation in the lung function tests (total lung capacity) ([1]; intratracheal on day 1, 8, 15, 22 and 29, measured day 35, compared to placebo): More hyperinflation was present in the lung function tests of mice from the placebo group; copper concentration at which the dose response curve with regard to DES levels topped off ([2]; added on top of the baseline copper (+)): ~8 *initial copper concentration in the fibroblast medium; DES levels [2, 5]: increased; ELN gene expression [2, 5]: did not have any effect; LOX activity [2, 5]: increased; LOX gene expression [2, 5]: increased; LOXL1 gene expression [2, 5]: increased"
[Cu] [copper],–,–,–,–,–,–,–,"effect on cerebral copper concentrations ([1]; intratracheally administered, mice): no effect; deposition of protease-resistant elastin fibers (copper-deficient chicks): near normal values; ultrastructure of pulmonary elastin (rats' lungs): restored the ultrastructure of pulmonary elastin to near normal"
O=S(=O)([O-])[O-].[Mg+2] [magnesium sulfate],additional stimulating effect,no stimulating effect,no stimulating effect,no stimulating effect,no stimulating effect,no additional stimulating effect,–,–
CC1=C(C/C=C(\C)CCC[C@H](C)CCC[C@H](C)CCCC(C)C)C(=O)c2ccccc2C1=O [vitamin K1],additional stimulating effect,no stimulating effect,no stimulating effect,no stimulating effect,no stimulating effect,no additional stimulating effect,additional stimulating effect,–
CC(C)=CCC/C(C)=C/CC/C(C)=C/CC/C(C)=C/CC1=C(C)C(=O)c2ccccc2C1=O [vitamin K2],additional stimulating effect,no stimulating effect,no stimulating effect,no stimulating effect,no stimulating effect,no additional stimulating effect,additional stimulating effect,–
heparin,–,–,–,–,–,–,–,"effect on systemic coagulation ([1]; mouse, in vivo): did not have any effect"
